Experimental data published in patent US12459922B2 (Gilead Sciences, Inc., priority 2022, dated 2025).

Test system: endogenous cellular STAT1 (phosphorylated at Tyr701) in NCI-H1373 cells
Experiment: Phospho-STAT1 (Tyr701) LANCE Ultra TR-FRET Detection Assay
Format: cell-based
Conditions: Homo sapiens, NCI-H1373, 48 h, phospho-STAT1 (Tyr701) induction, read-out: NH1373 pSTAT1 EC50

Compared with `Cc1ccc(-c2cc3ccn(CCC[C@H](C)Nc4cn[nH]c(=O)c4C(F)(F)F)c(=O)c3cc2F)nc1C(F)(F)F` [Example 296, (S)-7-fluoro-6-(5-methyl-6-(trifluoromethyl)pyridin-2-yl)-2-(4-((6-oxo-5-(trifluoromethyl)-1,6-dihydropyridazin-4-yl)amino)pentyl)isoquinolin-1(2H)-one], `C[C@@H](CCCn1ccc2cc(-c3cnc(C(F)(F)F)c(N)n3)c(F)cc2c1=O)Nc1cn[nH]c(=O)c1C(F)(F)F` [Example 316, (S)-6-(6-amino-5-(trifluoromethyl)pyrazin-2-yl)-7-fluoro-2-(4-((6-oxo-5-(trifluoromethyl)-1,6-dihydropyridazin-4-yl)amino)pentyl)isoquinolin-1(2H)-one] is 94-fold lower in EC50: 1460 nM for the first, 15.5 nM for the second.

Compared with `CC[C@@H](CCCn1ccc2cc(-c3ncc(C(F)F)c(N)n3)c(F)cc2c1=O)Nc1cn[nH]c(=O)c1C(F)(F)F` [Example 297, (S)-6-(4-amino-5-(difluoromethyl)pyrimidin-2-yl)-7-fluoro-2-(4-((6-oxo-5-(trifluoromethyl)-1,6-dihydropyridazin-4-yl)amino)hexyl)isoquinolin-1(2H)-one], `CC[C@@H](CCCn1cnc2cc(-c3ncc(C(F)F)c(N)n3)c(F)cc2c1=O)Nc1cn[nH]c(=O)c1C(F)(F)F` [Example 320, (S)-7-(4-amino-5-(difluoromethyl)pyrimidin-2-yl)-6-fluoro-3-(4-((6-oxo-5-(trifluoromethyl)-1,6-dihydropyridazin-4-yl)amino)hexyl)quinazolin-4(3H)-one] is 8.4-fold higher in EC50: 3.71 nM for the first, 31.2 nM for the second.

First: C[C@@H](CCCn1ccc2cc(-c3nc(N4CCOCC4)c4sccc4n3)c(F)cc2c1=O)Nc1cn[nH]c(=O)c1C(F)(F)F [Example 298, (S)-7-fluoro-6-(4-morpholinothieno[3,2-d]pyrimidin-2-yl)-2-(4-((6-oxo-5-(trifluoromethyl)-1,6-dihydropyridazin-4-yl)amino)pentyl)isoquinolin-1(2H)-one]
Second: C[C@@H](CCCn1ccc2cc(-c3ncc4cc(F)ccc4n3)c(F)cc2c1=O)Nc1cn[nH]c(=O)c1C(F)(F)F [Example 322, (S)-7-fluoro-6-(6-fluoroquinazolin-2-yl)-2-(4-((6-oxo-5-(trifluoromethyl)-1,6-dihydropyridazin-4-yl)amino)pentyl)isoquinolin-1(2H)-one]
The EC50 of the first is 5.7-fold higher: 32 nM for the first, 5.64 nM for the second.

Going from `Cc1cc(N)nc(-c2cc3ccn(CCC[C@H](C)Nc4cn[nH]c(=O)c4C(F)(F)F)c(=O)c3cc2F)n1` [Example 315, (S)-6-(4-amino-6-methylpyrimidin-2-yl)-7-fluoro-2-(4-((6-oxo-5-(trifluoromethyl)-1,6-dihydropyridazin-4-yl)amino)pentyl)isoquinolin-1(2H)-one] to `Cc1nc(-c2cc3ccn(CCC[C@H](C)Nc4cn[nH]c(=O)c4C(F)(F)F)c(=O)c3cc2F)nc(N)c1Cl` [Example 319, (S)-6-(4-amino-5-chloro-6-methylpyrimidin-2-yl)-7-fluoro-2-(4-((6-oxo-5-(trifluoromethyl)-1,6-dihydropyridazin-4-yl)amino)pentyl)isoquinolin-1(2H)-one], the EC50 falls from 561 nM to 2.92 nM (190-fold).

First: C[C@@H](CCCn1ccc2cc(-c3ncc(C(F)(F)F)c(N4CCS(=O)(=O)C4)n3)c(F)cc2c1=O)Nc1cn[nH]c(=O)c1C(F)(F)F [Example 317, (S)-6-(4-(1,1-dioxidothiazolidin-3-yl)-5-(trifluoromethyl)pyrimidin-2-yl)-7-fluoro-2-(4-((6-oxo-5-(trifluoromethyl)-1,6-dihydropyridazin-4-yl)amino)pentyl)isoquinolin-1(2H)-one]
Second: C[C@@H]1C[C@H](C)N1c1nc(-c2cc3ccn(CCC[C@H](C)Nc4cn[nH]c(=O)c4C(F)(F)F)c(=O)c3cc2F)ncc1C(F)(F)F [Example 318, 6-(4-((2R,4S)-2,4-dimethylazetidin-1-yl)-5-(trifluoromethyl)pyrimidin-2-yl)-7-fluoro-2-((S)-4-((6-oxo-5-(trifluoromethyl)-1,6-dihydropyridazin-4-yl)amino)pentyl)isoquinolin-1(2H)-one]
The EC50 of the first is 1.6-fold higher: 45.1 nM for the first, 28.6 nM for the second.

`CC[C@@H](CCCn1cnc2cc(-c3ncc(C(F)(F)F)c(N)n3)c(F)cc2c1=O)Nc1cn[nH]c(=O)c1C(F)(F)F` [Example 321, (S)-7-(4-amino-5-(trifluoromethyl)pyrimidin-2-yl)-6-fluoro-3-(4-((6-oxo-5-(trifluoromethyl)-1,6-dihydropyridazin-4-yl)amino)hexyl)quinazolin-4(3H)-one] and `Cc1nc(-c2cc3ccn(CCC[C@H](C)Nc4cn[nH]c(=O)c4C(F)(F)F)c(=O)c3cc2F)nc(N)c1C(F)(F)F` [Example 327, (S)-6-(4-amino-6-methyl-5-(trifluoromethyl)pyrimidin-2-yl)-7-fluoro-2-(4-((6-oxo-5-(trifluoromethyl)-1,6-dihydropyridazin-4-yl)amino)pentyl)isoquinolin-1(2H)-one] are within 1.5-fold of each other in EC50: 4.11 nM for the first, 3.05 nM for the second.

Going from `C[C@@H](CCCn1ccc2cc(-c3nc(C(F)(F)F)co3)c(F)cc2c1=O)Nc1cn[nH]c(=O)c1C(F)(F)F` [Example 323, (S)-7-fluoro-2-(4-((6-oxo-5-(trifluoromethyl)-1,6-dihydropyridazin-4-yl)amino)pentyl)-6-(4-(trifluoromethyl)oxazol-2-yl)isoquinolin-1(2H)-one] to `C[C@@H](CCCn1ccc2cc(-c3ncc(C(F)(F)F)cc3Cl)c(F)cc2c1=O)Nc1cn[nH]c(=O)c1C(F)(F)F` [Example 326, (S)-6-(3-chloro-5-(trifluoromethyl)pyridin-2-yl)-7-fluoro-2-(4-((6-oxo-5-(trifluoromethyl)-1,6-dihydropyridazin-4-yl)amino)pentyl)isoquinolin-1(2H)-one], the EC50 falls from 260 nM to 113 nM (2.3-fold). The second is the more potent here.

First: C[C@@H](CCCn1ccc2cc(-c3cnc(C(F)F)c(N)n3)c(F)cc2c1=O)Nc1cn[nH]c(=O)c1C(F)(F)F [Example 324, (S)-6-(6-amino-5-(difluoromethyl)pyrazin-2-yl)-7-fluoro-2-(4-((6-oxo-5-(trifluoromethyl)-1,6-dihydropyridazin-4-yl)amino)pentyl)isoquinolin-1(2H)-one]
Second: C[C@@H](CCCn1ccc2cc(-c3cnc(C(F)F)cn3)c(F)cc2c1=O)Nc1cn[nH]c(=O)c1C(F)(F)F [Example 329, (S)-6-(5-(difluoromethyl)pyrazin-2-yl)-7-fluoro-2-(4-((6-oxo-5-(trifluoromethyl)-1,6-dihydropyridazin-4-yl)amino)pentyl)isoquinolin-1(2H)-one]
The EC50 of the first is 21-fold lower: 4.65 nM for the first, 97.7 nM for the second.

Going from `CC(C)c1cnc(-c2cc3ccn(CCC[C@H](C)Nc4cn[nH]c(=O)c4C(F)(F)F)c(=O)c3cc2F)nc1N` [Example 325, (S)-6-(4-amino-5-isopropylpyrimidin-2-yl)-7-fluoro-2-(4-((6-oxo-5-(trifluoromethyl)-1,6-dihydropyridazin-4-yl)amino)pentyl)isoquinolin-1(2H)-one] to `C[C@@H](CCCn1ccc2cc(-c3ncc(C(F)(F)F)cc3N)c(F)cc2c1=O)Nc1cn[nH]c(=O)c1C(F)(F)F` [Example 328, (S)-6-(3-amino-5-(trifluoromethyl)pyridin-2-yl)-7-fluoro-2-(4-((6-oxo-5-(trifluoromethyl)-1,6-dihydropyridazin-4-yl)amino)pentyl)isoquinolin-1(2H)-one], the EC50 rises from 10.6 nM to 78.6 nM (7.4-fold).
